Patent US20220054513A1, “COMBINATION COMPOSITIONS COMPRISING A BETA-LACTAMASE INHIBITOR” (VenatoRx Pharmaceuticals, Inc., priority 2018, published 2022)
Like-named read-outs stand apart in the source and are kept apart here.

Experiments:
[1] = test system: multi-drug resistant Acinetobacter baumannii; assay: broth microdilution MIC of sulbactam, ampicillin, cefepime and combinations +/- Compound 1, panel of 51 Acinetobacter isolates
[2] = test system: Acinetobacter baumannii-calcoaceticus species complex clinical isolates; assay: MIC of triple combinations (Compound 1, sulbactam, meropenem or cefepime), 141 clinical isolates; format: cell-based; details: Acinetobacter
Description: For a more comprehensive assessment of the ability of test compounds to potentiate sulbactam in triple combinations with β-lactams additional MIC assays were utilized.

## CC1(C)[C@H](C(=O)O)N2C(=O)C[C@H]2S1(=O)=O [SUL, Sulbactam]
[1]
  MIC50: 16 µg/mL
  MIC90: 64 µg/mL
[1]; read-out: Minimum inhibitory concentration (MIC), strain 0273 (ADC-25, OXA-23, OXA-66)
  MIC: 32 µg/mL
[1]; read-out: Minimum inhibitory concentration (MIC), strain 0274 (TEM-1D, ADC-25, OXA-66, OXA-72)
  MIC: 64 µg/mL
[1]; read-out: Minimum inhibitory concentration (MIC), strain 0275 (TEM-1D, ADC-25, OXA-23, OXA-66)
  MIC: 64 µg/mL
[1]; read-out: Minimum inhibitory concentration (MIC), strain 0276 (enzyme content ND)
  MIC: 8 µg/mL
[1]; read-out: Minimum inhibitory concentration (MIC), strain 0277 (TEM-1B, OXA-65, OXA-24)
  MIC: 32 µg/mL
[1]; read-out: Minimum inhibitory concentration (MIC), strain 0278 (TEM-1D, ADC-25, OXA-23, OXA-66)
  MIC: 32 µg/mL
[1]; read-out: Minimum inhibitory concentration (MIC), strain 0279 (TEM-1D, ADC-25, OXA-23, OXA-66)
  MIC: 32 µg/mL
[1]; read-out: Minimum inhibitory concentration (MIC), strain 0280 (TEM-1D, ADC-25, OXA-66)
  MIC: 128 µg/mL
[1]; read-out: Minimum inhibitory concentration (MIC), strain 0281 (TEM-1D, ADC-25, OXA-82)
  MIC: 32 µg/mL
[1]; read-out: Minimum inhibitory concentration (MIC), strain 0282 (TEM-1D, ADC-25, OXA-23, OXA-66)
  MIC: 32 µg/mL
[1]; read-out: Minimum inhibitory concentration (MIC), strain 0283 (TEM-1D, ADC-25, OXA-23, OXA-66)
  MIC: 16 µg/mL
[1]; read-out: Minimum inhibitory concentration (MIC), strain 0284 (TEM-1B, OXA-65, OXA-24)
  MIC: 32 µg/mL
[1]; read-out: Minimum inhibitory concentration (MIC), strain 0285 (TEM-1B, OXA-65, OXA-24)
  MIC: 16 µg/mL
[1]; read-out: Minimum inhibitory concentration (MIC), strain 0286 (ADC-25, OXA-66, OXA-24)
  MIC: 16 µg/mL
[1]; read-out: Minimum inhibitory concentration (MIC), strain 0287 (ADC-25, OXA-66, OXA-72)
  MIC: 64 µg/mL
[1]; read-out: Minimum inhibitory concentration (MIC), strain 0288 (ADC-25, OXA-23, OXA-66)
  MIC: 32 µg/mL
[1]; read-out: Minimum inhibitory concentration (MIC), strain 0289 (ADC-25, OXA-66, OXA-72)
  MIC: 16 µg/mL
[1]; read-out: Minimum inhibitory concentration (MIC), strain 0290 (TEM-1D, ADC-25, OXA-23, OXA-66)
  MIC: 32 µg/mL
[1]; read-out: Minimum inhibitory concentration (MIC), strain 0291 (TEM-1D, ADC-25, OXA-23, OXA-66)
  MIC: 16 µg/mL
[1]; read-out: Minimum inhibitory concentration (MIC), strain 0292 (OXA-66, OXA-72)
  MIC: 32 µg/mL
[1]; read-out: Minimum inhibitory concentration (MIC), strain 0293 (OXA-66, OXA-72)
  MIC: 16 µg/mL
[1]; read-out: Minimum inhibitory concentration (MIC), strain 0294 (TEM-1B, OXA-23, OXA-65)
  MIC: 16 µg/mL
[1]; read-out: Minimum inhibitory concentration (MIC), strain 0295 (TEM-1D, ADC-25, OXA-23, OXA-66)
  MIC: 32 µg/mL
[1]; read-out: Minimum inhibitory concentration (MIC), strain 0296 (ADC-25, OXA-23, OXA-223)
  MIC: 64 µg/mL
[1]; read-out: Minimum inhibitory concentration (MIC), strain 0297 (ADC-25, OXA-23, OXA-66)
  MIC: 8 µg/mL
[1]; read-out: Minimum inhibitory concentration (MIC), strain 0298 (TEM-1D, ADC-25, OXA-66, OXA-237)
  MIC: 32 µg/mL
[1]; read-out: Minimum inhibitory concentration (MIC), strain 0299 (PER-7, OXA-23, OXA-203)
  MIC: 32 µg/mL
[1]; read-out: Minimum inhibitory concentration (MIC), strain 0300 (ADC-25, OXA-66)
  MIC: 2 µg/mL
[1]; read-out: Minimum inhibitory concentration (MIC), strain 0301 (ADC-25, OXA-66, OXA-72)
  MIC: 16 µg/mL
[1]; read-out: Minimum inhibitory concentration (MIC), strain 0302 (OXA-23, OXA-82)
  MIC: 32 µg/mL
[1]; read-out: Minimum inhibitory concentration (MIC), strain 0303 (ADC-25, OXA-23, OXA-66)
  MIC: 8 µg/mL
[1]; read-out: Minimum inhibitory concentration (MIC), strain 0304 (ADC-25, OXA-66, OXA-72)
  MIC: 8 µg/mL
[1]; read-out: Minimum inhibitory concentration (MIC), strain 0305 (TEM-1B, OXA-65, OXA-24)
  MIC: 8 µg/mL
[1]; read-out: Minimum inhibitory concentration (MIC), strain 0306 (TEM-1B, OXA-65, OXA-24)
  MIC: 64 µg/mL
[1]; read-out: Minimum inhibitory concentration (MIC), strain 0307 (ADC-25, OXA-66, OXA-237)
  MIC: 4 µg/mL
[1]; read-out: Minimum inhibitory concentration (MIC), strain 0308 (TEM-1D, ADC-25, OXA-71)
  MIC: 32 µg/mL
[1]; read-out: Minimum inhibitory concentration (MIC), strain 0309 (OXA-23, OXA-82)
  MIC: 8 µg/mL
[1]; read-out: Minimum inhibitory concentration (MIC), strain 0310 (OXA-23, OXA-82)
  MIC: 32 µg/mL
[1]; read-out: Minimum inhibitory concentration (MIC), strain 0311 (ADC-25, OXA-23, OXA-82)
  MIC: 16 µg/mL
[1]; read-out: Minimum inhibitory concentration (MIC), strain 0312 (OXA-69)
  MIC: 4 µg/mL
[1]; read-out: Minimum inhibitory concentration (MIC), strain 0313 (TEM-1D, OXA-23, OXA-69)
  MIC: 32 µg/mL
[1]; read-out: Minimum inhibitory concentration (MIC), strain 157834 (enzyme content ND)
  MIC: 2 µg/mL
[1]; read-out: Minimum inhibitory concentration (MIC), strain 157842 (enzyme content ND)
  MIC: 2 µg/mL
[1]; read-out: Minimum inhibitory concentration (MIC), strain 157876 (enzyme content ND)
  MIC: 4 µg/mL
[1]; read-out: Minimum inhibitory concentration (MIC), strain 157901 (enzyme content ND)
  MIC: 16 µg/mL
[1]; read-out: Minimum inhibitory concentration (MIC), strain 161750 (enzyme content ND)
  MIC: 8 µg/mL
[1]; read-out: Minimum inhibitory concentration (MIC), strain 161752 (enzyme content ND)
  MIC: 4 µg/mL
[1]; read-out: Minimum inhibitory concentration (MIC), strain 161755 (enzyme content ND)
  MIC: 4 µg/mL
[1]; read-out: Minimum inhibitory concentration (MIC), strain 161756 (enzyme content ND)
  MIC: 2 µg/mL
[1]; read-out: Minimum inhibitory concentration (MIC), strain 161760 (enzyme content ND)
  MIC: 16 µg/mL
[1]; read-out: Minimum inhibitory concentration (MIC), strain 161762 (enzyme content ND)
  MIC: 4 µg/mL
[2]
  MIC: 128 µg/mL
[2]; strain 990089, Cmpd 1 at 4 μg/mL in combinations
  MIC: 16 µg/mL
[2]; strain 993131, Cmpd 1 at 4 μg/mL in combinations
  MIC: 32 µg/mL
[2]; strain 993139, Cmpd 1 at 4 μg/mL in combinations
  MIC: 32 µg/mL
[2]; strain 994180, Cmpd 1 at 4 μg/mL in combinations
  MIC: 16 µg/mL
[2]; strain 994181, Cmpd 1 at 4 μg/mL in combinations
  MIC: 16 µg/mL
[2]; strain 995771, Cmpd 1 at 4 μg/mL in combinations
  MIC: 16 µg/mL
[2]; strain 996612, Cmpd 1 at 4 μg/mL in combinations
  MIC: 64 µg/mL
[2]; strain 996707, Cmpd 1 at 4 μg/mL in combinations
  MIC: 32 µg/mL
[2]; strain 996869, Cmpd 1 at 4 μg/mL in combinations
  MIC: 32 µg/mL
[2]; strain 997574, Cmpd 1 at 4 μg/mL in combinations
  MIC: 32 µg/mL
[2]; strain 998107, Cmpd 1 at 4 μg/mL in combinations
  MIC: 16 µg/mL
[2]; strain 998532, Cmpd 1 at 4 μg/mL in combinations
  MIC: 16 µg/mL
[2]; strain 998898, Cmpd 1 at 4 μg/mL in combinations
  MIC: 64 µg/mL
[2]; strain 998907, Cmpd 1 at 4 μg/mL in combinations
  MIC: 32 µg/mL
[2]; strain 999306, Cmpd 1 at 4 μg/mL in combinations
  MIC: 8 µg/mL
[2]; strain 999343, Cmpd 1 at 4 μg/mL in combinations
  MIC: 32 µg/mL
[2]; strain 1001007, Cmpd 1 at 4 μg/mL in combinations
  MIC: 32 µg/mL
[2]; strain 1001143, Cmpd 1 at 4 μg/mL in combinations
  MIC: 32 µg/mL
[2]; strain 1001611, Cmpd 1 at 4 μg/mL in combinations
  MIC: 16 µg/mL
[2]; strain 1002208, Cmpd 1 at 4 μg/mL in combinations
  MIC: 16 µg/mL
[2]; strain 1002247, Cmpd 1 at 4 μg/mL in combinations
  MIC: 64 µg/mL
[2]; strain 1002688, Cmpd 1 at 4 μg/mL in combinations
  MIC: 16 µg/mL
[2]; strain 1002952, Cmpd 1 at 4 μg/mL in combinations
  MIC: 64 µg/mL
[2]; strain 1003557, Cmpd 1 at 4 μg/mL in combinations
  MIC: 8 µg/mL
[2]; strain 1003662, Cmpd 1 at 4 μg/mL in combinations
  MIC: 16 µg/mL
[2]; strain 1003787, Cmpd 1 at 4 μg/mL in combinations
  MIC: 32 µg/mL
[2]; strain 1004867, Cmpd 1 at 4 μg/mL in combinations
  MIC: 64 µg/mL
[2]; strain 1005265, Cmpd 1 at 4 μg/mL in combinations
  MIC: 32 µg/mL
[2]; strain 1005290, Cmpd 1 at 4 μg/mL in combinations
  MIC: 16 µg/mL
[2]; strain 1007660, Cmpd 1 at 4 μg/mL in combinations
  MIC: 32 µg/mL
[2]; strain 1008508, Cmpd 1 at 4 μg/mL in combinations
  MIC: 16 µg/mL
[2]; strain 1008510, Cmpd 1 at 4 μg/mL in combinations
  MIC: 32 µg/mL
[2]; strain 1008730, Cmpd 1 at 4 μg/mL in combinations
  MIC: 32 µg/mL
[2]; strain 1008756, Cmpd 1 at 4 μg/mL in combinations
  MIC: 64 µg/mL
[2]; strain 1010245, Cmpd 1 at 4 μg/mL in combinations
  MIC: 16 µg/mL
[2]; strain 1010383, Cmpd 1 at 4 μg/mL in combinations
  MIC: 32 µg/mL
[2]; strain 1011959, Cmpd 1 at 4 μg/mL in combinations
  MIC: 16 µg/mL
[2]; strain 1013022, Cmpd 1 at 4 μg/mL in combinations
  MIC: 8 µg/mL
[2]; strain 1013035, Cmpd 1 at 4 μg/mL in combinations
  MIC: 16 µg/mL
[2]; strain 1013055, Cmpd 1 at 4 μg/mL in combinations
  MIC: 16 µg/mL
[2]; strain 1013322, Cmpd 1 at 4 μg/mL in combinations
  MIC: 16 µg/mL
[2]; strain 1014143, Cmpd 1 at 4 μg/mL in combinations
  MIC: 32 µg/mL
[2]; strain 1014646, Cmpd 1 at 4 μg/mL in combinations
  MIC: 16 µg/mL
